The test system of assay [1] is animal models of pain. The conditions noted are these: acute thermal, persistent, inflammatory and neuropathic pain models; cited from earlier work.
For assay [2], the system named is atherosclerotic lesions. The conditions noted are these: low doses, apolipoprotein E knockout mice; cited from earlier work.
The test system of assay [3] is ovariectomy-induced bone loss. The conditions noted are these: mice, model for post-menopausal osteoporosis; cited from earlier work.
The subject of assay [4] is rat formalin model of persistent pain. The conditions noted are these: cited from earlier work.
For assay [5], the system named is rodent models of pain. The conditions noted are these: neuropathic, incisional, chronic and acute inflammatory pain; cited from earlier work.
Assay [6] has as its target rat CB2 receptors (HEK cells) (Rattus norvegicus (Rat), UniProt Q9QZN9). Briefly: rat CB2 cyclase functional assay (HitHunter cAMP). In kind it is cell-based.
For assay [7], the target named is rat CB2 receptors (Rattus norvegicus (Rat), UniProt Q9QZN9). Briefly: rat CB2 radioligand binding assay ([3H]CP 55,940 competition). The conditions noted are these: HEK293 membranes, 0.5 nM [3H]CP 55,940. A digest of the protocol: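 Membranes from HEK293 cells stably expressing rat CB2 (20 μg protein/well) were incubated 45 min at 30 °C with 0.5 nM [3H]CP 55,940 and five displacer concentrations, in pH 7.4 Tris buffer with 0.5 mg/mL BSA. Bound radioactivity was measured by filtration. Nonspecific binding was defined with 10 μM unlabeled CP 55,940.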

For assay [8], the target named is rat CB1 receptors (HEK cells) (Rattus norvegicus (Rat), UniProt P20272). Briefly: rat CB1 cyclase functional assay (HitHunter cAMP). In kind it is cell-based.
rat CB1 receptors (HEK cells), sequence (P20272 whole entry): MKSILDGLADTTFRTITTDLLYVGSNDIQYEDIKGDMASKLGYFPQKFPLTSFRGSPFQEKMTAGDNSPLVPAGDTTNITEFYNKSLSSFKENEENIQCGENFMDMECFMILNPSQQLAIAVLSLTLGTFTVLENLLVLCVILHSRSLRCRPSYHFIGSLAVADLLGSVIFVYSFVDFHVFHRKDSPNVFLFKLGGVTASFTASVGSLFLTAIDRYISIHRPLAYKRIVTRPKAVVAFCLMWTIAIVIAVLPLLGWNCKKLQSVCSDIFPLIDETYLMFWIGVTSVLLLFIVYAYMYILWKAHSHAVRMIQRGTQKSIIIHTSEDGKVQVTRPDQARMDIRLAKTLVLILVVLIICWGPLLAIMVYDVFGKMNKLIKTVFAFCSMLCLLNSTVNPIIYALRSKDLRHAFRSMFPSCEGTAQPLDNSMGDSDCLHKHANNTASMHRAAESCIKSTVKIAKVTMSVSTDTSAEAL
Assay [9] has as its target human CB2 receptors (Homo sapiens (Human), UniProt P34972). In words: human CB2 radioligand binding assay ([3H]CP 55,940 competition). The conditions noted are these: HEK293 membranes, 0.5 nM [3H]CP 55,940; read-out: human CB2 (Ki). A digest of the protocol: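 Displacement of 0.5 nM [3H]CP 55,940 over 0.01 nM-10 μM test compound, measured on human CB2 membranes from stably transfected HEK293 cells. Incubation 90 min at 30 °C in Tris/EDTA/MgCl2/BSA, pH 7.4, then filter-bound radioactivity counted; 10 μM unlabeled CP 55,940 defined nonspecific binding.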

Assay [10] relates to microglial. The conditions noted are these: in vitro; cited from earlier work.
[11] abbreviates: HEK cells, forskolin 18 μM, read-out: rat CB2 cyclase (EC50).

Read-outs that look alike come from different tables or passages of the source.

human CB2 receptors, sequence (P34972 whole entry): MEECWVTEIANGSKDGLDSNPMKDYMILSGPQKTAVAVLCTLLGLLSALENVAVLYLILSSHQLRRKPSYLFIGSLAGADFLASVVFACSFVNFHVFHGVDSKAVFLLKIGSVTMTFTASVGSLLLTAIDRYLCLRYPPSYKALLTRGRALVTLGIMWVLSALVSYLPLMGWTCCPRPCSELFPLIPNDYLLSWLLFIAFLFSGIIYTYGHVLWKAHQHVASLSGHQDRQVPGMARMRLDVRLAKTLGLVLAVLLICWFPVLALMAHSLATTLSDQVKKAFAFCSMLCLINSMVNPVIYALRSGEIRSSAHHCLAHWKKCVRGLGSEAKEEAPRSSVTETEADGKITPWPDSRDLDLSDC

Turning to `CN1CCCCC1Cn1cc(C(=O)c2cc([N+](=O)[O-])ccc2I)c2ccccc21` (stereo not drawn) [AM-1241], the analgesic efficacy entry in assay [1] is “robust analgesic efficacy”.
Take (−)-Δ^9-Tetrahydrocannabinol [THC]: the “effect on progression of atherosclerotic lesions” value in [2] was “slowed the progression of atherosclerotic lesions”.
For SR144528, the “effect on osteoclast activity and bone loss” value in assay [3] was “inhibit osteoclast activity and reverse ovariectomy-induced bone loss”.
Turning to `CCCCCCC(C)(C)c1cc(OC)c([C@@H]2C=C(CO)[C@@H]3C[C@H]2C3(C)C)c(OC)c1` [HU-308], the antinociceptive response entry in assay [4] is recorded as “elicits an antinociceptive response”.
`COc1ccc2c(c1)c(CCN1CCOCC1)c(C)n2C(=O)c1cccc(Cl)c1Cl` [GW405833]: the “efficacy in pain models” value in [5] was “efficacious”.
As for `CC(C)(C)c1cn(C[C@H]2CCCO2)/c(=N/C(=O)c2cc(C(F)(F)F)ccc2OC[C@@H]2CNCCO2)s1` [Example 66, N-[(2Z)-5-tert-butyl-3-[(2R)-tetrahydrofuran-2-ylmethyl]-1,3-thiazol-2(3H)-ylidene]-2-[(2S)-morpholin-2-ylmethoxy]-5-(trifluoromethyl)benzamide], the concentration giving a half-maximal response (EC50) in assay [6] came to 0.37 nM; in assay [8], 5050 nM. The Ki in [7] came out at 5.1 nM; in assay [9], 21 nM.
Consider `CC(C)(C)c1cn(C[C@H]2CCCO2)/c(=N/C(=O)c2cc(C(F)(F)F)ccc2OC[C@H]2CCCCN2)s1` [Example 6, N-[(2Z)-5-tert-butyl-3-[(2R)-tetrahydrofuran-2-ylmethyl]-1,3-thiazol-2(3H)-ylidene]-2-[(2R)-piperidin-2-ylmethoxy]-5-(trifluoromethyl)benzamide], for which the EC50 in assay [6] (setting [11]) is 0.4 nM; in assay [8] it was 4500 nM. Also, the Ki in assay [7] was 14 nM; in assay [9], 30 nM.
In the case of `CCCC(C)(C)c1ccc2c(c1)OC(C)(C)[C@@H]1CC=C(C)C[C@@H]21` [JWH-133], the “effect on β-amyloid-induced microglial activation and neurotoxicity” value in [10] is “abrogated β-amyloid-induced microglial activation and neurotoxicity”.
As to `CN1CCC[C@@H]1COc1ccc(C(F)(F)F)cc1C(=O)/N=c1\sc(C(C)(C)C)cn1C[C@H]1CCCO1` [Example 26, N-[(2Z)-5-tert-butyl-3-[(2R)-tetrahydrofuran-2-ylmethyl]-1,3-thiazol-2(3H)-ylidene]-2-{[(2R)-1-methylpyrrolidin-2-yl]methoxy}-5-(trifluoromethyl)benzamide], the 50% effective concentration (EC50) is 2.18 nM in assay [6] (setting [11]) and 11200 nM in [8]. For the same compound, the inhibitory constant (Ki) was 70 nM in [7] and 206 nM in [9].
On the same counts, the results for `CC(C)(C)c1cn(C[C@H]2CCCO2)/c(=N/C(=O)c2cc(C(F)(F)F)ccc2OCc2cnccn2)s1` [Example 19, N-[(2Z)-5-tert-butyl-3-[(2R)-tetrahydrofuran-2-ylmethyl]-1,3-thiazol-2(3H)-ylidene]-2-(pyrazin-2-ylmethoxy)-5-(trifluoromethyl)benzamide] are 0.41 nM, 3390 nM, 5 nM and 5 nM.
Turning to `CC(C)(C)c1cn(C[C@H]2CCCO2)/c(=N/C(=O)c2cc(C(F)(F)F)ccc2OCc2cccnc2)s1` [Example 21, N-[(2Z)-5-tert-butyl-3-[(2R)-tetrahydrofuran-2-ylmethyl]-1,3-thiazol-2(3H)-ylidene]-2-(pyridin-3-ylmethoxy)-5-(trifluoromethyl)benzamide], the EC50 was found to be 0.21 nM in assay [6] and 6220 nM in [8]. Also, the inhibitory constant (Ki) in assay [7] was determined as 10 nM; in [9] it was 13 nM.
As for `Cn1ccnc1COc1ccc(C(F)(F)F)cc1C(=O)/N=c1\sc(C(C)(C)C)cn1C[C@H]1CCCO1` [Example 17, N-[(2Z)-5-tert-butyl-3-[(2R)-tetrahydrofuran-2-ylmethyl]-1,3-thiazol-2(3H)-ylidene]-2-[(1-methyl-1H-imidazol-2-yl)methoxy]-5-(trifluoromethyl)benzamide], the EC50 in assay [6] (setting [11]) was 2.75 nM; in assay [8], over 27000 nM. In addition, the inhibition constant (Ki) amounted to 15 nM in [7] and 53 nM in assay [9].

As usually defined, the EC50 is the concentration at which the effect is half-maximal. The Ki is a measure of affinity in units of concentration, obtained from inhibition or displacement.

These data come from patent publication US8846730B2, “Compounds as cannabinoid receptor ligands” (priority 2008, dated 2014).
